Read-outs that look alike come from different tables or passages of the source.
How the values were obtained:
[1] = biological target: T1, ratAChE (Rattus norvegicus, UniProt P37136); assay: biochemical; settings: for SI: Selectivity Index = IC50 (BuChE)/IC50 (AChE), rat enzymes; for IC50: from 5% rat cortex homogenate
T1 construct: AChE from 5% rat cortex homogenate or human erythrocytes (Sigma Co.); from tissue; host or cells: 5% rat cortex homogenate
T1 sequence (P37136 32-614): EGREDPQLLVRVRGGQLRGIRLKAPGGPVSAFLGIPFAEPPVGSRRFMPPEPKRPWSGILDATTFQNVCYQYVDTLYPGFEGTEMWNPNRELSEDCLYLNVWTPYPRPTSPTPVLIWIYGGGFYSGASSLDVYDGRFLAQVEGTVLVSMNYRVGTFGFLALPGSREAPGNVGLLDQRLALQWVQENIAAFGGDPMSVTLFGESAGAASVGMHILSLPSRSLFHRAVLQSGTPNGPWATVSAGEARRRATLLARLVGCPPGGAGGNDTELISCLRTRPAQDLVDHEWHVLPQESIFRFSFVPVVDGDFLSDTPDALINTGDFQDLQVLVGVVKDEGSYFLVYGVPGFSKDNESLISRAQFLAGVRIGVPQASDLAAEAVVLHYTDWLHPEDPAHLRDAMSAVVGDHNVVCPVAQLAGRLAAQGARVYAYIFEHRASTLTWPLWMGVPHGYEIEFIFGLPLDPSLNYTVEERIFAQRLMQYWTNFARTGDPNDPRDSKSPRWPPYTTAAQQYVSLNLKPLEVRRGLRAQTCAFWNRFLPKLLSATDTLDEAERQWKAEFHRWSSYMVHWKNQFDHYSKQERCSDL
Experimental: (§1) The AChE and BuChE inhibitory activities of the synthesised compounds were evaluated using the Ellman assay with slight modification. AChE from 5% rat cortex homogenate or human erythrocytes (Sigma Co.). BuChE from rat serum or human serum (Sigma Co.).

[2] = biological target: T2, ratBuChE (Rattus norvegicus, UniProt Q9JKC1); assay: ratBuChE inhibition, modified Ellman's method; assay type: biochemical
T2 construct: BuChE from rat serum or human serum (Sigma Co.); from tissue; host or cells: rat serum
Experimental: as §1

[3] = biological target: T3, huBuChE (Homo sapiens, UniProt P06276); assay: biochemical; assay type: biochemical; settings: from human serum; read-out: IC50 ± SD huBuChE
T3 construct: BuChE from rat serum or human serum (Sigma Co.); purchased Sigma Co; host or cells: human serum
Experimental: as §1

[4] = for ORAC: Trolox as standard
Experimental: The skeleton compounds naringenin and apigenin were also evaluated for comparison purposes, and vitamin E analogue Trolox was used as a standard.
The antioxidant potency of target compounds was tested using an oxygen radical absorbance capacity fluorescein (ORAC-FL) assay.

[5] = biological target: huAChE (Homo sapiens, UniProt P22303); assay: biochemical; assay type: biochemical; design: AChE from 5% rat cortex homogenate or human erythrocytes (Sigma Co.); purchased Sigma Co; host or cells: human erythrocytes; settings: for SI: Selectivity Index = IC50 (BuChE)/IC50 (AChE), human enzymes; for IC50: from human erythrocytes, read-out: IC50 ± SD huAChE
Experimental: as §1

[6] = in vitro; settings: PAMPA
[7] = biological target: T4, Aβ1–42 (Homo sapiens, UniProt P05067); assay: Self-induced Aβ1–42 aggregation, Thioflavin T fluorescence; assay type: biochemical; settings: tested compounds and Aβ1–42 25 μM
Text: (§2) The Thioflavin T-based flurometric assay was employed to test the inhibition potency on self-induced/Cu^2+-induced Aβ1-42 aggregation.

[8] = biological target: T4, Aβ1–42; assay: Cu^2+-induced Aβ1–42 aggregation, ThT fluorescence; assay type: biochemical; settings: tested compounds and Aβ1–42 25 μM
Experimental: Curcumin was also tested as a referenced compound.
as §2

[9] = system: scopolamine-induced mice memory impairment; assay: Step-down passive avoidance task; settings: 5 mg/kg, scopolamine 3 mg/kg
Experimental: Sixty mice were randomly divided into six groups. […] After 30 min, memory impairment was induced by administering scopolamine (3 mg/kg).

[10] = cited from earlier work

T2 sequence (Q9JKC1 24-597): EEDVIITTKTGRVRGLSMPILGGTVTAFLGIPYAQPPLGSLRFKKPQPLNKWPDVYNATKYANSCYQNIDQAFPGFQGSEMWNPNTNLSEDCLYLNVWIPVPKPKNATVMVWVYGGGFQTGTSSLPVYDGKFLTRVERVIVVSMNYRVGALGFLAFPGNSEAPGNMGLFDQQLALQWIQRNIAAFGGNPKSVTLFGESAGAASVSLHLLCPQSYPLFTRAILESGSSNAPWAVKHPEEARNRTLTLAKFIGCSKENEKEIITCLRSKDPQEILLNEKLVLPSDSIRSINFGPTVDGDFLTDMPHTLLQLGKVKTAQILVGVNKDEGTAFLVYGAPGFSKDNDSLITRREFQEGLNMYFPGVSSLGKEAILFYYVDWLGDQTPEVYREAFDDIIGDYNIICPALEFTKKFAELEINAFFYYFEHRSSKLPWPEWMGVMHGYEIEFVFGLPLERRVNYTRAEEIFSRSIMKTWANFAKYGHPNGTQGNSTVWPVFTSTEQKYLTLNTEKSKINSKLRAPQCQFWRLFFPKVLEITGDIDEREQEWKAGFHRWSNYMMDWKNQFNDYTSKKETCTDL
T3 sequence (P06276 29-602): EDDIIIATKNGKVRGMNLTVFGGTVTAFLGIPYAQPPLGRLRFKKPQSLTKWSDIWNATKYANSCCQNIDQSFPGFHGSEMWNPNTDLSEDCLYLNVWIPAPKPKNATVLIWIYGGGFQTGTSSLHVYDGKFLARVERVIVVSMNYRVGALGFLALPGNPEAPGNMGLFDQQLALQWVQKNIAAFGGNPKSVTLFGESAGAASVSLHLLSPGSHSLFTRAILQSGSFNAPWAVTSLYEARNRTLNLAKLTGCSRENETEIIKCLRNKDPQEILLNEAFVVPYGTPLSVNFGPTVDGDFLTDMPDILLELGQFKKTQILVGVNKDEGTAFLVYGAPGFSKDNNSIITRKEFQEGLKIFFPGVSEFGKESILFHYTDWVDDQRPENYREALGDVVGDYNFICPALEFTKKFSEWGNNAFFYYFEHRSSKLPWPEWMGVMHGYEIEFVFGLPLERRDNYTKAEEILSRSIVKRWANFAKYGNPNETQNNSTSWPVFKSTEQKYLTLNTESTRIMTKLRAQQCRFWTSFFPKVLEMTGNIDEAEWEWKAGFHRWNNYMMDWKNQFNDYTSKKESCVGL
Chain of huAChE (P22303 32-617 isoform P22303-2 limits assumed): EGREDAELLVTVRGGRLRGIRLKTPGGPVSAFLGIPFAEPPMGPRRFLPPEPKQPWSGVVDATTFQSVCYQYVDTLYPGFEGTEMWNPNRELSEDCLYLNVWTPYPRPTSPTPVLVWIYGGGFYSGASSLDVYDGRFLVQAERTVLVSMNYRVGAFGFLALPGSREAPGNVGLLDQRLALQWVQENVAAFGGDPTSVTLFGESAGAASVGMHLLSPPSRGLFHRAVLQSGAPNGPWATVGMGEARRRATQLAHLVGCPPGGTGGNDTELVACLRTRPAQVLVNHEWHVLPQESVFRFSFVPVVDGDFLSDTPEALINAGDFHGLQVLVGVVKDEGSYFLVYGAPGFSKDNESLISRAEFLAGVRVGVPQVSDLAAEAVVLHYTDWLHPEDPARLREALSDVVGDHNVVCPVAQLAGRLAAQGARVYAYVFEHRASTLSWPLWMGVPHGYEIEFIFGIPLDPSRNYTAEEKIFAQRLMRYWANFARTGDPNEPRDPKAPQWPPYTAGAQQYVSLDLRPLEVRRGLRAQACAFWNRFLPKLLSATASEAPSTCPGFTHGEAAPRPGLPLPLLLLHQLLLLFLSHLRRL
T4 sequence (P05067 672-713): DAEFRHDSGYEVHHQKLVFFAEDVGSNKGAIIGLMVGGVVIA

Structure (SMILES)	SI [1]	IC50 ([1]; read-out: IC50 ± SD ratAChE)	IC50 [2]	IC50 [3]	ORAC [4]	SI [5]	IC50 [5]	other results
CCN(CCCCOc1ccc(-c2cc(=O)c3c(O)cc(OCCCCN(CC)Cc4ccccc4)cc3o2)cc1)Cc1ccccc1 [Compound 10h, 7–(4-(benzyl(ethyl)amino)butoxy)-2–(4-(4-(benzyl(ethyl)amino)butoxy)phenyl)-5-hydroxy-4H-chromen-4-one]	14.0	920 ± 60 nM	12900 ± 510 nM	3700 ± 60 nM	1.1 ± 0.03 μM of Trolox equivalent/μM of tested compound	23.1	160 ± 10 nM	
CCN(CCCCCOc1ccc(-c2cc(=O)c3c(O)cc(OCCCCCN(CC)Cc4ccccc4)cc3o2)cc1)Cc1ccccc1 [Compound 10k, 7-((5-(benzyl(ethyl)amino)pentyl)oxy)-2–(4-((5-(benzyl(ethyl)amino)pentyl)oxy)phenyl)-5-hydroxy-4H-chromen-4-one]	16.4	810 ± 50 nM	13300 ± 270 nM	4500 ± 120 nM	1.1 ± 0.02 μM of Trolox equivalent/μM of tested compound	34.6	130 ± 10 nM	
CCN(CCCCCOc1ccc(-c2cc(=O)c3c(O)cc(OCCCCCN(CC)Cc4ccccc4OC)cc3o2)cc1)Cc1ccccc1OC [Compound 10l, 7-((5-(ethyl(2-methoxybenzyl)amino)pentyl)oxy)-2–(4-((5-(ethyl(2-methoxybenzyl)amino)pentyl)oxy)phenyl)-5-hydroxy-4H-chromen-4-one]	23.2	620 ± 50 nM	14400 ± 320 nM	2200 ± 180 nM	1.3 ± 0.03 μM of Trolox equivalent/μM of tested compound	24.4	90 ± 2 nM	
CCn1cc(C(=O)O)c(=O)c2cc(F)c(N3CCNCC3)cc21 [Norfloxacin, reference compound]								Papp at 100 μg/mL [6]: 0.13 ± 0.01 ×10⁻⁶ cm/s
COc1cc(/C=C/C(=O)CC(=O)/C=C/c2ccc(O)c(OC)c2)ccc1O [curcumin, reference compound]								inhibition at 25 µM [7]: 45.9 ± 0.67%; inhibition at 25 µM [8]: 50.6 ± 0.33%
COc1cc2c(cc1OC)C(=O)C(CC1CCN(Cc3ccccc3)CC1)C2 (stereo not drawn) [donepezil, reference compound]								step-down latency [9]: 219.4 s
O=C1CC(c2ccc(O)cc2)Oc2cc(O)cc(O)c21 (stereo not drawn) [naringenin, 5,7-dihydroxy-2–(4-hydroxyphenyl)-2,3-dihydrochromen-4-one, reference compound]			> 50000 nM		5.2 ± 0.29 μM of Trolox equivalent/μM of tested compound			IC50 ([1]; IC50 ± SD ratAChE): > 50000 nM; oral bioavailability [10]: 15%; ORAC values [4]: 5.2 eq

Source: article PMC8881077 (Journal of Enzyme Inhibition and Medicinal Chemistry, 2022)
